Assays:
HT1080 cells = test: Cellular assay for IDH1m R132C inhibitors, 2-HG by LC-MS in HT1080 cells; assay type: cell-based; details: Homo sapiens, HT-1080
Procedure, shortened: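 2-HG levels were measured by LC-MS in culture medium sampled 48 h after compound addition (0.2% DMSO) to HT1080 cells seeded overnight at 5000 cells/well. A CellTiter-Glo luminescence read at 72 h gave cell viability.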

IDH1 R132C = IDH1 R132C (Homo sapiens (Human), UniProt O75874, R132C); test: In vitro assay IDH1 R132C homodimer, NADPH depletion assay; assay type: biochemical
Sequence of IDH1 R132C (O75874 whole entry R132C): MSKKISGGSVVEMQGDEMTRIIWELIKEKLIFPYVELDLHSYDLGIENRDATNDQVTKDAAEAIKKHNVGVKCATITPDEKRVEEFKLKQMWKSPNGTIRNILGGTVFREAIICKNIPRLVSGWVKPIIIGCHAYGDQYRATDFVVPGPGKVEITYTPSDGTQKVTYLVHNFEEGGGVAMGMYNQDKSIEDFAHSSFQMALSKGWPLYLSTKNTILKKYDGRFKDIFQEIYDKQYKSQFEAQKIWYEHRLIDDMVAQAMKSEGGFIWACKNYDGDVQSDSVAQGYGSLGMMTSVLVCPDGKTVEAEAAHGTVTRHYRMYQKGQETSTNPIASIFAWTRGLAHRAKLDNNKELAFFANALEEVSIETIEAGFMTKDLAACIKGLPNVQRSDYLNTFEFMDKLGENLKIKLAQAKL
Description: (§1) The following describes the experimental procedures that can be used to obtain data on columns 3 and 6 of Table 4.
(§2) A test compound is prepared as 10 mM stock in DMSO and diluted to 50× final concentration in DMSO, for a 50 μl reaction mixture. IDH enzyme activity converting alpha-ketoglutarate to 2-hydroxyglutaric acid is measured using a NADPH depletion assay. In the assay the remaining cofactor is measured at the end of the reaction with the addition of a catalytic excess of diaphorase and resazurin, to generate a fluorescent signal in proportion to the amount of NADPH remaining. […] The reaction is started with the addition of 10 μl of Substrate Mix ([…], 5 mM alpha-ketoglutarate, in Assay Buffer) and the mixture is incubated for 90 minutes at room temperature.
The concentration of NADPH and alpha-ketoglutarate in the Substrate Buffer is 20 μM and 1 mM, respectively.

[1] = biological target: IDH1-R132 homodimer enzyme (R132H) (Homo sapiens (Human), UniProt O75874, R132H); test: In vitro assay IDH1-R132H homodimer, NADPH depletion assay; assay type: biochemical
Sequence of IDH1-R132 homodimer enzyme (R132H) (O75874 whole entry R132H): as the sequence (O75874 whole entry R132C) above, with C132H counted along it
Description: as §1, §2

IDH2 R140Q [2] = biological target: T1, IDH2 R140Q (Homo sapiens (Human), UniProt P48735, R140Q); test: In vitro assay for IDH2m R140Q inhibitors, cofactor depletion assay; assay type: biochemical; details: IDH2 R140Q enzyme
T1 sequence (P48735 40-452 R140Q): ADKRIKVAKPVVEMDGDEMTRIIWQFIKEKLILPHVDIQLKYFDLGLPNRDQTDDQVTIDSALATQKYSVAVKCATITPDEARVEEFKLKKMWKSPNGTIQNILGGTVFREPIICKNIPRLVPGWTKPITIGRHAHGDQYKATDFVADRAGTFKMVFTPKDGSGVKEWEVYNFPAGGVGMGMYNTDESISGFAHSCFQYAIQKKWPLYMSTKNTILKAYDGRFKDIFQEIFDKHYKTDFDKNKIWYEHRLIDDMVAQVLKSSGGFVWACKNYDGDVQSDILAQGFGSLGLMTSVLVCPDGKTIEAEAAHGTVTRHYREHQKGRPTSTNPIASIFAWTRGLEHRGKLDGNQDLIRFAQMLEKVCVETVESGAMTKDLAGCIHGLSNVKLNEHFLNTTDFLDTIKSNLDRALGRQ
Procedure, shortened: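 Remaining cofactor measured fluorimetrically: diaphorase/resazurin Stop Mix […], halting the reaction. Before that, mutant enzyme and compound sat 1 h at RT, then substrate mix (4 μM NADPH, 1.6 mM α-KG) was added for 16 h at RT.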

[3] = biological target: IDH1 wt/IDH1 R132H heterodimer (Homo sapiens (Human), UniProt O75874, R132H); test: In vitro assay for IDH1m R132H inhibitors, IDH1 wt/IDH1 R132H heterodimer, NADPH depletion (diaphorase/resazurin); assay type: biochemical; details: IDH1 wt/R132H heterodimer, NADPH/NADP, not saturated; read-out: IDH1 wt/R132H NADPH/NADP IC50 not saturated
Sequence of IDH1 wt/IDH1 R132H heterodimer (O75874 whole entry R132H): as the sequence (O75874 whole entry R132C) above, with C132H counted along it
Sequence of IDH1 wt/IDH1 R132H heterodimer (O75874 whole entry, stated change not applied): as the sequence (O75874 whole entry R132C) above, with C132R counted along it
Procedure, shortened: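 Read-out is NADPH left after α-KG reduction to 2-HG, measured via resorufin fluorescence after 5 min diaphorase/resazurin step at 25° C. Enzyme is sf9-expressed IDH1wt-his/IDH1R132H-flag heterodimer, pre-incubated 1 hr at room temperature with compound and cofactor. IC50s from DMSO stocks diluted 1:50.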

[4] = biological target: IDH1-R132H homodimer enzyme (Homo sapiens (Human), UniProt O75874, R132H); test: In vitro assay IDH1-R132H homodimer, NADPH depletion assay with NADPH/NADP preincubation; assay type: biochemical; details: 5 μM NADPH and 37.5 μM NADP
Sequence of IDH1-R132H homodimer enzyme (O75874 whole entry R132H): as the sequence (O75874 whole entry R132C) above, with C132H counted along it
Procedure, shortened: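 Compounds were added from DMSO at 50× final concentration, and the mutant enzyme was incubated 60 min at room temperature after starting with a substrate mix holding NADPH and 5 mM alpha-ketoglutarate. Residual cofactor, read by fluorescence after excess diaphorase and resazurin, reflects enzyme turnover.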

IDH2 R140Q [5] = biological target: T1, IDH2 R140Q; test: In vitro assay for IDH2m R140Q inhibitors, cofactor depletion assay, 16 hr preincubation with NADPH/NADP; assay type: biochemical; details: read-out: IDH2 R140Q 16 hr NADPH/NADP IC50; 16 hrs preincubation with enzyme, 5 uM NADPH and 750 uM NADP
Source text: The following describes the experimental procedures used to obtain data on column 6 of Table 5.
The reaction is terminated by the addition of a second enzyme, diaphorase, and a corresponding substrate, resazurin. Diaphorase reduces resazurin to the highly fluorescent resorufin with the concomitant oxidation of NADPH to NADP, both halting the IDH2 reaction by depleting the available cofactor pool and facilitating quantitation of the amount of cofactor remaining after a specific time period through quantitative production of an easily detected fluorophore.
The test compound is then incubated for 16 hrs at room temperature with the enzyme and cofactors before starting the IDH2 reaction with the addition of 10 μl of substrate mix containing 8 mM α-KG (final concentration 1.6 mM) in the buffer described above. After a further 1 hour of incubation at room temperature, the reaction is halted and the remaining NADPH measured through conversion of resazurin to resorufin by the addition of 25 μl Stop Mix (36 μg/ml diaphorase enzyme and 60 μM resazurin; in buffer).

[6] = tested on: U87MG pLVX-IDH2 R140Q-neo cells; test: U87MG pLVX-IDH2 R140Q-neo cell based assay, 2-HG by LC-MS; details: Homo sapiens, U-87 MG

Structure (SMILES) | IC50 (HT1080 cells) [µM] | IC50 (IDH1 R132C) [µM] | IC50 [1] [µM] | IC50 (IDH2 R140Q [2]) [µM] | IC50 [3] [µM] | IC50 [4] [µM] | IC50 (IDH2 R140Q [5]) [µM] | IDH1 R132H IC50 [1] | IC50 [6] [µM]
C[C@@H](Nc1nc(NC2C3CC4CC(C3)CC2C4)nc(-c2cccc(C(F)(F)F)n2)n1)C1CC1 (stereo partly shown) [Compound 234] | – | – | – | – | < 0.05 | 0.1 to 1 | 0.1 to 1 | – | –
C[C@@H](Nc1cc(NC2CCC(F)(F)CC2)nc(-c2cccc(Cl)n2)n1)C(F)(F)F [Compound 418] | – | – | – | – | 0.05 to 0.1 | – | < 0.05 | – | –
CC(O)CNc1nc(N[C@H](C)C2CC2)nc(-c2cccc(C(F)(F)F)n2)n1 (stereo partly drawn) [Compound 12, 1-(4-((R)-1-cyclopropylethylamino)-6-(6-(trifluoromethyl)pyridin-2-yl)-1,3,5-triazin-2-ylamino)propan-2-ol] | – | > 1 | > 1 | 0.05 to 0.1 | – | – | – | – | –
FC(F)(F)c1cccc(-c2nc(NCC3CC3)nc(NCC3CC3)n2)n1 [Compound 1] | – | > 1 | > 1 | < 0.05 | – | – | – | – | < 0.05
COc1ccc(F)c(-c2nc(N[C@H](C)C3CC3)nc(N[C@H](C)C3CC3)n2)c1 [Compound 8] | – | > 1 | – | 0.05 to 0.1 | – | – | – | No Fit | –
C[C@@H](Nc1nc(NCc2ccccc2)nc(-c2cccc(C(F)(F)F)n2)n1)C1CC1 [Compound 21] | – | > 1 | > 1 | < 0.05 | – | – | – | – | –
C[C@H](Nc1nc(N[C@H](C)c2ccccc2)nc(-c2cccc(C(F)(F)F)n2)n1)c1ccccc1 [Compound 26] | – | > 1 | 0.1 to 1 | < 0.05 | – | – | – | – | –
CC(O)CNc1nc(NCC(C)O)nc(-c2cccc(C(F)(F)F)n2)n1 (stereo not shown) [Compound 14] | – | > 1 | > 1 | > 1 | – | – | – | – | –
C[C@@H](Nc1nc(NCC(C)(C)O)nc(-c2cccc(C(F)(F)F)n2)n1)C1CC1 (stereo in doubt) [Compound 10, 1-(4-(1-cyclopropylethylamino)-6-(6-(trifluoromethyl)pyridin-2-yl)-1,3,5-triazin-2-ylamino)-2-methylpropan-2-ol] | – | > 1 | > 1 | 0.05 to 0.1 | – | – | – | – | –
C[C@@H](Nc1cc(NC(C)(C)C)nc(-c2cccc(C(F)(F)F)n2)n1)C1CC1 [Compound 417] | – | > 1 | 0.1 to 1 | – | – | 0.1 to 1 | – | – | –
C[C@@H](Nc1nc(N[C@H](C)C2CC2)nc(-c2cccc(CO)c2)n1)C1CC1 [Compound 16] | – | > 1 | > 1 | < 0.05 | – | – | – | – | –

Continued, in another order:

IC50 (HT1080 cells) [µM] | IC50 (IDH1 R132C) [µM] | IC50 [1] [µM] | IC50 (IDH2 R140Q [2]) [µM] | IC50 [3] [µM] | IC50 [4] [µM] | IC50 (IDH2 R140Q [5]) [µM] | IDH1 R132H IC50 [1] | Structure (SMILES) | IC50 [6] [µM]
0.05 to 0.1 | 0.05 to 0.1 | < 0.05 | – | – | – | – | – | CC(C)[C@@H](C)Nc1nc(N[C@H](C)C(C)C)nc(-c2cccc(C(F)(F)F)n2)n1 [Compound 18] | –
0.05 to 0.1 | 0.05 to 0.1 | < 0.05 | – | – | – | – | – | CCCC(C)Nc1nc(N[C@H](C)C2CC2)nc(-c2cccc(C(F)(F)F)n2)n1 (stereo partly shown) [Compound 39] | –
– | 0.1 to 1 | 0.05 to 0.1 | < 0.05 | – | – | – | – | FC(F)(F)c1cccc(-c2nc(NC3CCC3)nc(NC3CCC3)n2)n1 [Compound 9] | –
– | 0.1 to 1 | 0.05 to 0.1 | < 0.05 | – | – | – | – | C[C@@H](Nc1nc(N[C@H](C)C2CC2)nc(-c2cccc(C(F)(F)F)n2)n1)c1ccccc1 [Compound 22] | –
0.05 to 0.1 | 0.05 to 0.1 | 0.05 to 0.1 | – | < 0.05 | – | – | – | CC(Nc1nc(N[C@H](C)C2CC2)nc(-c2cccc(C(F)(F)F)n2)n1)c1cccc(F)c1 (stereo partly shown) [Compound 28] | –
0.05 to 0.1 | 0.05 to 0.1 | 0.1 to 1 | < 0.05 | – | – | – | – | C[C@@H](Nc1nc(N[C@H](C)C2CC2)nc(-c2cccc(O)c2)n1)C1CC1 [Compound 11] | –
< 0.05 | 0.05 to 0.1 | 0.05 to 0.1 | – | – | – | – | – | CC(C)[C@H](C)Nc1nc(N[C@@H](C)C(C)C)nc(-c2cccc(C(F)(F)F)n2)n1 [Compound 17] | –
– | 0.05 to 0.1 | 0.05 to 0.1 | < 0.05 | < 0.05 | – | – | – | CC(Nc1nc(N[C@H](C)C2CC2)nc(-c2cccc(C(F)(F)F)n2)n1)c1ccccc1 (single isomer, unassigned) [Compound 20] | –
– | > 1 | 0.1 to 1 | < 0.05 | – | – | – | – | FC(F)(F)c1cccc(-c2nc(NCC3CCC3)nc(NCC3CCC3)n2)n1 [Compound 7] | –
0.05 to 0.1 | 0.05 to 0.1 | 0.05 to 0.1 | – | – | – | – | – | C[C@@H](Nc1nc(N[C@H](C)C2CCC2)nc(-c2cccc(C(F)(F)F)n2)n1)C1CCC1 [Compound 19] | –
0.05 to 0.1 | 0.05 to 0.1 | 0.05 to 0.1 | < 0.05 | – | – | – | – | CC(C)(C)Nc1nc(NC(C)(C)C)nc(-c2cccc(C(F)(F)F)n2)n1 [Compound 4] | –
< 0.05 | 0.05 to 0.1 | < 0.05 | – | – | – | – | – | C[C@H](Nc1nc(N[C@@H](C)C2CC2)nc(-c2cccc(C(F)(F)F)n2)n1)C1CC1 [Compound 33] | –
< 0.05 | < 0.05 | < 0.05 | < 0.05 | – | – | – | – | C[C@@H](Nc1nc(N[C@H](C)C2CC2)nc(-c2cccc(C(F)(F)F)n2)n1)C1CC1 [Compound 2] | < 0.05
< 0.05 | 0.05 to 0.1 | < 0.05 | – | – | – | – | – | C[C@H](Nc1nc(N[C@H](C)C2CC2)nc(-c2cccc(C(F)(F)F)n2)n1)C1CC1 [Compound 34] | –
< 0.05 | 0.05 to 0.1 | < 0.05 | – | – | – | – | – | CC(C)C(C)Nc1nc(NC(C)C(C)C)nc(-c2cccc(C(F)(F)F)n2)n1 (stereo not shown) [Compound 13] | –
< 0.05 | < 0.05 | < 0.05 | < 0.05 | – | – | – | – | FC1(F)CCC(Nc2nc(NC3CCC(F)(F)C3)nc(-c3cccc(C(F)(F)F)n3)n2)C1 (stereo not shown) [Compound 31] | –
